Measured values reported in patent US20140088006A1, “Stem Cell Mobilization and Tissue Repair and Regeneration” (Wellstat Therapeutics Corporation, priority 2011, published 2014).
Values joined by “and” are separate entries in the source; they are usually repeats but may differ in a detail not shown here. Equal entries are not always repeated. No end group written: not given here.

Columns and labels:
[1] = tested on: CFU-GEMM / CFU-GM progenitor cells; assay: CFU colony assay of peripheral blood after 4 daily subcutaneous injections; type: in vivo, C57Bl/6 male mice; details: for CFU-GEMM number, AVG / CFU-GEMM number: 1 hr after injection; for CFU-GEMM number: individual dishes
Experimental: This example is based on a protocol for a 4-day course of once-daily Compound X injections into C57Bl/6 male mice similar to G-CSF. Two effective dose levels of Compound X were found previously to mobilize HSC 1 hr after single injection and were selected for this experiment. Four-month old C57Bl/6 male mice (Jackson Laboratories) were subcutaneously injected with 0.9% saline, 125 μg/kg Compound X or 250 μg/kg Compound X on days 1, 2, 3 and 4 as described in Table 4. Each day, one-hour post injections, peripheral blood from 3 mice per group was harvested from the orbital plexus into EDTA-containing tubes. On day 4, a femur and spleen were also removed from mice to assess by FACS whether any toxicity aroused from repeated injections of Compound X.
As in the previous example to determine mobilization of colony-forming cells out of the bone marrow, mononuclear cells from peripheral blood were plated into MethoCult 3434 media (Stem Cell Technologies). Briefly, after white blood cell counting, the remaining peripheral blood was diluted (1:1, v/v) with 0.9% saline (APP Pharmaceutical) and layered (2:1, v/v) onto 1-Step™1.077 A (Accurate Chemicals) in 15-ml centrifuge tubes. Cells were centrifuged at 600×g for 20 min at room temperature. The mononuclear cells were harvested from the interface between the plasma layer and the 1-Step™ A solution using a 1-ml syringe and blunt-end needle. The cells were transferred to 15-ml centrifuge tubes and washed twice in 1×PBS. Cells were resuspended in 1 ml of IMDM and cell counts were obtained using the Coulter counter. Cells were placed into 35-mm Petri dishes at 200,000 cells per dish with 5 dishes per group. Cells incubated for 10 days in a 37° C. and 5% CO2 humidified incubator. CFU colonies were then scored using an inverted microscope—CFU-GM detected on day 7 and CFU-GEMM—on day 10. Data presented in Tables 7, 8 and 9, FIGS. 3 and 4.

[2] = tested on: streptozotocin-induced diabetic mice; assay: STZ diabetes model; type: in vivo, C57BL/6 female mice
Experimental: In order to look at the ability of Compound X mobilized stem cells to mediate tissue regeneration in vivo subcutaneous injections of 250 μg/kg of Compound X were compared with the ability of Compound X treated bone marrow cells to regenerate pancreas in a streptozoticin-induced diabetic model. Streptozotocin (STZ) is an antibiotic that preferentially kills the insulin secreting beta cells in pancreas. STZ-induced diabetes is a widely used model of pancreatic insufficiency.
Streptozotocin was dissolved and diluted into citric acid buffer (pH 4.5) immediately before injections. Drinking water and food were removed for 6 hours from 8-week old C57BL/6 female mice (Charles River) before mice were given a single intraperitoneal dose of 150 mg/kg STZ (Day −4). Blood for glucose determination was obtained from the tail vein four days post STZ. Blood glucose was measured by using an Elite glucometer (Bayer). Mice were considered diabetic if their blood glucose was >300 mg/dL. Mice showing >300 mg/dL blood glucose were randomized and divided into 5 groups of 10 mice (day 0). […]
After 96 hours of expansion, cells were harvested and processed for fluorescence activated cell sorting (FACS). […] Stained cells were excited with laser 2 (488 nm) and fluorescence emission was detected using the following optical filters, FL-3 (PerCP-Cy5.5) 695/BP40, FL-2 (phycoerythrin) 585/BP42 and FL-1 (FITC) 530/BP30. […]

spleen cells = assay: Flow cytometry analysis of stem cell phenotypes in spleens on day 7; type: in vivo, mice; details: 250 μg/kg

Sequence: FPHFDLSHGSAQV [Compound X, tridecapeptide that acts on stem cells]
- CFU-GEMM number, AVG ([1]; 125 μg/kg s.c. daily, Day 1): 2.4 per 100000 mononuclear cells
- CFU-GEMM number ([1]; 125 μg/kg s.c. daily, Day 1): 2 per 100000 mononuclear cells (4×) and 4 per 100000 mononuclear cells
- CFU-GEMM number, AVG ([1]; 125 μg/kg s.c. daily, Day 2): 2.8 per 100000 mononuclear cells
- CFU-GEMM number ([1]; 125 μg/kg s.c. daily, Day 2): 5 per 100000 mononuclear cells and 3 per 100000 mononuclear cells (2×) and 1 per 100000 mononuclear cells and 2 per 100000 mononuclear cells
- CFU-GEMM number, AVG ([1]; 125 μg/kg s.c. daily, Day 3): 0.4 per 100000 mononuclear cells
- CFU-GEMM number ([1]; 125 μg/kg s.c. daily, Day 3): 1 per 100000 mononuclear cells (2×) and 0 per 100000 mononuclear cells (3×)
- CFU-GEMM number, AVG ([1]; 125 μg/kg s.c. daily, Day 4): 0.8 per 100000 mononuclear cells
- CFU-GEMM number ([1]; 125 μg/kg s.c. daily, Day 4): 0 per 100000 mononuclear cells (2×) and 2 per 100000 mononuclear cells and 1 per 100000 mononuclear cells (2×)
- increase in multilineage CFU-GEMM colonies vs saline ([1]; 250 μg/kg over 4 days, all days): ≥ 2 fold
- CFU-GEMM number, AVG ([1]; 250 μg/kg s.c. daily, Day 1): 2.6 per 100000 mononuclear cells
- CFU-GEMM number ([1]; 250 μg/kg s.c. daily, Day 1): 4 per 100000 mononuclear cells (2×) and 1 per 100000 mononuclear cells and 2 per 100000 mononuclear cells (2×)
- CFU-GEMM number, AVG ([1]; 250 μg/kg s.c. daily, Day 2): 3.6 per 100000 mononuclear cells
- CFU-GEMM number ([1]; 250 μg/kg s.c. daily, Day 2): 2 per 100000 mononuclear cells and 6 per 100000 mononuclear cells (2×) and 3 per 100000 mononuclear cells and 1 per 100000 mononuclear cells
- CFU-GEMM number, AVG ([1]; 250 μg/kg s.c. daily, Day 3): 2.8 per 100000 mononuclear cells
- CFU-GEMM number ([1]; 250 μg/kg s.c. daily, Day 3): 2 per 100000 mononuclear cells (2×) and 4 per 100000 mononuclear cells and 3 per 100000 mononuclear cells (2×)
- CFU-GEMM number, AVG ([1]; 250 μg/kg s.c. daily, Day 4): 4 per 100000 mononuclear cells
- CFU-GEMM number ([1]; 250 μg/kg s.c. daily, Day 4): 4 per 100000 mononuclear cells (3×) and 3 per 100000 mononuclear cells and 5 per 100000 mononuclear cells
- increase in CFU-GEMM vs saline ([1]; 250 μg/kg, day 3): 4.7 fold
- mobilization of granulocytic and macrophage precursors CFU-GM ([1]; s.c. daily for 4 days): did not affect mobilization
- Survival of STZ treated mice ([2]; s.c. 250 μg/kg for 5 consecutive days for 3 weeks, STZ 150 mg/kg): 100%
- mice with substantial weight loss ([2]; s.c. 250 μg/kg stem cell mobilizing doses): No mice
- accumulation of cells with stem cell phenotypes in the spleens (spleen cells): No accumulation
- CD34+ Flk-1+, Mean (spleen cells; spleen): 0.03
- CD34+ Flk-1−, Mean (spleen cells; spleen): 0.05
- CD34− Flk-1+, Mean (spleen cells; spleen): 0.38
- CD150+ CD48−, Mean (spleen cells; spleen): 0.17
- CD244+ CD48+, Mean (spleen cells; spleen): 0.78
- Lin− Kit+ Sca-1+, Mean (spleen cells; spleen): 0.07
- Lin− Kit+ Sca-1−, Mean (spleen cells; spleen): 0.50
- Lin− Kit^low Sca-1+, Mean (spleen cells; spleen): 0.17
